Results: patent US11141422B2, “Methods for treating pulmonary hypertension” (Chiesi Farmaceutici S.p.A., priority 2011, dated 2021)
“Also recorded” adds a separate entry of the source.

How the values were obtained:
[1] = tested on: anaesthetized, mechanically ventilated pigs in normoxia; assay: Response to ADP infusion during normoxia: haemodynamic measurements in pigs (Protocol 3); type: in vivo
Experimental: (§1) Haemodynamic measurements were performed in six anaesthetized, mechanically ventilated pigs (30.2±0.7 kg) in normoxia (FiO2˜0.21) and hypoxia (FiO2˜0.10) prior to and during right atrial cangrelor infusion at a loading dose of 30 μg/kg/min for 10 min, and then a continuous infusion at 4 μg/kg/min for 80 min. Another six pigs (29.3±0.5 kg) were investigated in normoxia before and during right atrial infusion of ADP at 70 μg/kg/min for ˜7 min; as well as before and during simultaneous ADP and cangrelor infusion for ˜7 min at doses of 70 μg/kg/min and 4 μg/kg/min, respectively, after a cangrelor loading dose of 30 μg/kg/min for 10 min. All data are mean±SEM.
Protocol 3—Response to ADP During Normoxia.
ADP infusion during normoxia increased MPAP, temporarily to peak at 35.2±1.9 mmHg, 19.3±1.6 mmHg higher (p<0.001) than baseline, to then stabilize at a level 10.4±1.6 mmHg higher (p<0.001) than baseline, and 8.9±1.4 mmHg lower (p<0.001) than the peak, after ˜4-7 min. Also, after ˜4-7 min from initiation of ADP infusion, PVR had increased (p<0.002) by 2.8±0.4 WU and PCWP by 2.5±0.7 mmHg (p<0.019), compared to baseline. ADP infusion during normoxia decreased MAP, first to reach a nadir at 39.8±6.1 mmHg, 48.5±6.0 mmHg lower (p<0.001) than baseline, however, then stabilizing, after ˜4-7 min, at a level not different (p=ns) from, although slightly lower than, baseline, and 41.7±8.9 mmHg higher (p<0.001) than the nadir. MRAP, SVR, CO, HR, SV and blood-O2-consumption were unchanged (p=ns) by ADP infusion during normoxia.

[2] = tested on: anaesthetized, mechanically ventilated pigs in hypoxia (hypoxic pulmonary vasoconstriction); assay: Response to cangrelor during hypoxia: haemodynamic measurements in pigs (Protocol 2); type: in vivo; conditions: for MPAP decrease compared to hypoxia baseline: hypoxia (FiO2˜0.10), mean±SEM
Experimental: as §1
Protocol 2—Response to Cangrelor During Hypoxia.
Compared to hypoxia baseline, MPAP decreased transiently by 3.3±0.4 (p<0.036) and 3.6±0.6 mmHg (p<0.018), respectively, 10 and 30 min after initiation of cangrelor infusion; but returned to levels not different (p=ns) from baseline 60 and 90 min after initiation of cangrelor infusion. PVR, MRAP, PCWP, MAP, SVR, CO, HR, SV and blood-O2-consumption were unaltered by cangrelor infusion during hypoxia (p=ns).

[3] = tested on: anaesthetized, mechanically ventilated pigs in normoxia (ADP-induced pulmonary vasoconstriction); assay: Response to simultaneous ADP and cangrelor infusion during normoxia: haemodynamic measurements in pigs (Protocol 4); type: in vivo
Experimental: as §1
Protocol 4—Response to Simultaneous ADP and Cangrelor Infusion.
(§2) The ˜4-7 min MAP measurement after simultaneous ADP and cangrelor infusion was, however, not different (p=ns) from the measurement with ADP infusion alone. Also, SVR decreased (p<0.024) by 3.2±1.2 WU, as compared to baseline, in response to simultaneous ADP and cangrelor infusion. […] Furthermore, the ˜4-7 min PVR and PCWP measurements after simultaneous ADP and cangrelor infusion were lower (p<0.005 and p<0.022, respectively) than the measurements with ADP infusion alone. Also, the ˜4-7 min SV measurement after simultaneous ADP and cangrelor infusion was higher (p<0.02) than the measurement with ADP infusion alone.

[4] = tested on: anaesthetized, mechanically ventilated pigs in normoxia; assay: Cangrelor infusion alone during normoxia: haemodynamic measurements in pigs; type: in vivo; conditions: p=ns
Experimental: as §1, §2

[5] = cited from earlier work
[6] = tested on: dog thrombosis model; conditions: compared with placebo; animals receiving tissue-type plasminogen activator and heparin after thrombus formation; cited from earlier work
[7] = ˜4-7 min from initiation of ADP infusion
[8] = during hypoxia, p=ns, listed as Cangrelor
[9] = simultaneous ADP and cangrelor infusion, normoxia
[10] = simultaneous ADP and cangrelor infusion, after ˜4-7 min
[11] = simultaneous ADP and cangrelor infusion, p=ns

Nc1ncnc2c1ncn2[C@@H]1O[C@H](COP(=O)(O)OP(=O)(O)O)[C@@H](O)[C@H]1O [ADP, adenosine diphosphate]
MAP nadir ([1]; ADP infusion): 39.8±6.1 mmHg
MAP nadir, lower than baseline ([1]; ADP infusion): 48.5±6.0 mmHg
MPAP peak, higher than baseline ([1]; ADP infusion 70 μg/kg/min): 19.3±1.6 mmHg
MPAP peak ([1]; ADP infusion 70 μg/kg/min, mean±SEM): 35.2±1.9 mmHg
MAP stabilized level, higher than the nadir ([1]; ADP infusion, after ˜4-7 min): 41.7±8.9 mmHg
MPAP stabilized level, higher than baseline ([1]; ADP infusion, after ˜4-7 min): 10.4±1.6 mmHg
MPAP stabilized level, lower than the peak ([1]; ADP infusion, after ˜4-7 min): 8.9±1.4 mmHg
MAP stabilized level compared to baseline ([1]; ADP infusion, after ˜4-7 min, p=ns): not different
CO change by ADP infusion ([1]; p=ns): unchanged; also recorded: tended to decrease
HR change by ADP infusion ([1]; p=ns): unchanged
MRAP change by ADP infusion ([1]; p=ns): unchanged; also recorded: tended to increase
SV change by ADP infusion ([1]; p=ns): unchanged; also recorded: tended to decrease
SVR change by ADP infusion ([1]; p=ns): unchanged
blood-O2-consumption change by ADP infusion ([1]; p=ns): unchanged; also recorded: tended to decrease
PCWP increase compared to baseline [1, 7]: 2.5±0.7 mmHg
PVR increase compared to baseline [1, 7]: 2.8±0.4 WU

CSCCNc1nc(SCCC(F)(F)F)nc2c1ncn2[C@@H]1O[C@H](COP(=O)(O)OP(=O)(O)C(Cl)(Cl)P(=O)(O)O)[C@@H](O)[C@H]1O [cangrelor]
CO change by cangrelor infusion ([2]; during hypoxia, p=ns): unaltered
HR change by cangrelor infusion ([2]; during hypoxia, p=ns): unaltered
MAP change by cangrelor infusion ([2]; during hypoxia, p=ns): unaltered
MRAP change by cangrelor infusion ([2]; during hypoxia, p=ns): unaltered
PCWP change by cangrelor infusion ([2]; during hypoxia, p=ns): unaltered
PVR change by cangrelor infusion ([2]; during hypoxia, p=ns): unaltered
SV change by cangrelor infusion ([2]; during hypoxia, p=ns): unaltered
SVR change by cangrelor infusion ([2]; during hypoxia, p=ns): unaltered
blood-O2-consumption change by cangrelor infusion ([2]; during hypoxia, p=ns): unaltered
MAP change by cangrelor infusion [2, 8]: without affecting
SVR change by cangrelor infusion [2, 8]: without affecting
blood-O2-consumption change by cangrelor infusion [2, 8]: without affecting
MPAP decrease compared to hypoxia baseline ([2]; 10 min after initiation of cangrelor infusion (30 μg/kg/min for 10 min, then 4 μg/kg/min)): 3.3±0.4 mmHg
MPAP decrease compared to hypoxia baseline ([2]; 30 min after initiation of cangrelor infusion): 3.6±0.6 mmHg
MPAP compared to hypoxia baseline ([2]; hypoxia, 60 and 90 min after initiation of cangrelor infusion, p=ns): not different
MPAP decrease (attenuation of acute HPV) ([2]; hypoxia, 10 min after cangrelor infusion was initiated): ~12%
MPAP decrease (attenuation of acute HPV) ([2]; hypoxia, 30 min after cangrelor infusion was initiated): ~14%
attenuation of the MPAP peak induced by ADP infusion ([3]; normoxia): 34%
sustained MPAP increase induced by ADP infusion ([3]; normoxia): totally prevented
sustained PVR increase induced by ADP infusion ([3]; normoxia): totally prevented
MPAP transient increase compared to baseline (peak) ([3]; normoxia, simultaneous ADP 70 μg/kg/min and cangrelor 4 μg/kg/min after cangrelor loading dose 30 μg/kg/min for 10 min): 7.3±1.8 mmHg
MPAP peak as share of the peak ADP response without cangrelor ([3]; normoxia, simultaneous ADP and cangrelor infusion): ~66%
SVR decrease compared to baseline ([3]; simultaneous ADP and cangrelor infusion): 3.2±1.2 WU
MAP nadir [3, 9]: 64.9±3.4 mmHg
MAP transient decrease compared to baseline [3, 9]: 19.4±3.1 mmHg
MAP stabilized level, higher than the nadir [3, 10]: 12.9±2.2 mmHg
MAP stabilized level, lower than baseline [3, 10]: 6.5±1.2 mmHg
MPAP level, lower than the peak [3, 10]: 7.4±1.5 mmHg
MPAP compared to baseline ([3]; simultaneous ADP and cangrelor infusion, after ˜4-7 min, p=ns): not different
˜4-7 min MPAP measurement compared to ADP infusion alone ([3]; simultaneous ADP and cangrelor infusion, p<0.002): significantly lower
˜4-7 min PVR measurement compared to ADP infusion alone ([3]; simultaneous ADP and cangrelor infusion, p<0.005): lower
˜4-7 min SV measurement compared to ADP infusion alone ([3]; simultaneous ADP and cangrelor infusion, p<0.02): higher
˜4-7 min PCWP measurement compared to ADP infusion alone ([3]; simultaneous ADP and cangrelor infusion, p<0.022): lower
MAP nadir compared to the nadir response to ADP alone ([3]; simultaneous ADP and cangrelor infusion, p<0.027): significantly higher
CO change compared to baseline [3, 11]: unchanged
HR change compared to baseline [3, 11]: unchanged
MRAP change compared to baseline [3, 11]: unchanged
PCWP change compared to baseline [3, 11]: unchanged
PVR change compared to baseline [3, 11]: unchanged
SV change compared to baseline [3, 11]: unchanged
blood-O2-consumption change compared to baseline [3, 11]: unchanged; also recorded: tended to decrease
˜4-7 min CO measurement compared to ADP infusion alone [3, 11]: neither any differences
˜4-7 min HR measurement compared to ADP infusion alone [3, 11]: neither any differences
˜4-7 min MAP measurement compared to ADP infusion alone [3, 11]: not different
˜4-7 min SVR measurement compared to ADP infusion alone [3, 11]: did not differ
MAP decrease to ADP ([3]; with cangrelor): attenuated
PCWP increase with ADP infusion alone ([3]; with cangrelor): attenuated
trend for a SV decrease with ADP infusion alone ([3]; with cangrelor): attenuated
any of the haemodynamic variables [4]: did not alter
time to steady state concentrations in plasma from start of infusion ([5]; bolus 30 μg/kg and infusion 4 μg/kg/min): ≤ 30 min
half-life (clearance from plasma) ([5]; plasma): 3 to 6 min
cyclic flow variation [6]: decreased
myocardial flow [6]: improved
reocclusion [6]: decreased

CCCSc1nc(N[C@@H]2C[C@H]2c2ccc(F)c(F)c2)c2nnn([C@@H]3C[C@H](OCCO)[C@@H](O)[C@H]3O)c2n1 [ticagrelor]
cyclic flow variation [6]: decreased
myocardial flow [6]: improved
reocclusion [6]: decreased
